Measured values published in patent US20230174571A1, “METHOD OF TREATING SHIP1-MEDIATED DISEASES USING PELOROL DERIVATIVES” (Zebrapeutics Inc., priority 2020, published 2023).

Tests used:
[1] = system: ConA-induced liver injury; assay: ConA-induced liver injury model; assay type: in vivo, mouse
Excerpt: Concanavalin A (ConA) induced liver injury model is an immune-mediated liver injury model, resembling viral and autoimmune hepatitis in humans. Intravenous delivery of ConA in mice is known to activate T cells, resulting in increased inflammatory cytokines such as TNF-α, IFN-r and IL-6 as well as decreased anti-inflammatory cytokine IL-10. The T cell infiltration into the liver leads to consequences of hepatocyte apoptosis and necrosis, resulting in increased levels of liver enzymes ALT and AST in plasma. (Zhou 2015) Methods: Five groups (n=5 each) of C57 mice were treated with a blank control, compound I-1 alone (10 mg/kg/d), ConA (15 mg/kg), ConA+compound I-1 (3 mg/kg/d) or ConA+compound I-1 (10 mg/kg/d). In each instance, compound I-1 was given 5 days before ConA injection (if applicable) via oral gavage twice a day. One hour after the last drug administration, ConA (15 mg/kg) was delivered intravenously. 12 hours after the ConA injection, orbital blood was taken from the eye and the enzyme biochemistry (plasma) and blood cell type tests were performed by analyzers.

SHIP1 = target: T1, SHIP1 (Mus musculus, UniProt Q9ES52); conditions: binds to the same SHIP1 C2 domain as PI(3,4)P2; Ong et al., 2007; cited from earlier work
T1 sequence (Q9ES52 1-1191): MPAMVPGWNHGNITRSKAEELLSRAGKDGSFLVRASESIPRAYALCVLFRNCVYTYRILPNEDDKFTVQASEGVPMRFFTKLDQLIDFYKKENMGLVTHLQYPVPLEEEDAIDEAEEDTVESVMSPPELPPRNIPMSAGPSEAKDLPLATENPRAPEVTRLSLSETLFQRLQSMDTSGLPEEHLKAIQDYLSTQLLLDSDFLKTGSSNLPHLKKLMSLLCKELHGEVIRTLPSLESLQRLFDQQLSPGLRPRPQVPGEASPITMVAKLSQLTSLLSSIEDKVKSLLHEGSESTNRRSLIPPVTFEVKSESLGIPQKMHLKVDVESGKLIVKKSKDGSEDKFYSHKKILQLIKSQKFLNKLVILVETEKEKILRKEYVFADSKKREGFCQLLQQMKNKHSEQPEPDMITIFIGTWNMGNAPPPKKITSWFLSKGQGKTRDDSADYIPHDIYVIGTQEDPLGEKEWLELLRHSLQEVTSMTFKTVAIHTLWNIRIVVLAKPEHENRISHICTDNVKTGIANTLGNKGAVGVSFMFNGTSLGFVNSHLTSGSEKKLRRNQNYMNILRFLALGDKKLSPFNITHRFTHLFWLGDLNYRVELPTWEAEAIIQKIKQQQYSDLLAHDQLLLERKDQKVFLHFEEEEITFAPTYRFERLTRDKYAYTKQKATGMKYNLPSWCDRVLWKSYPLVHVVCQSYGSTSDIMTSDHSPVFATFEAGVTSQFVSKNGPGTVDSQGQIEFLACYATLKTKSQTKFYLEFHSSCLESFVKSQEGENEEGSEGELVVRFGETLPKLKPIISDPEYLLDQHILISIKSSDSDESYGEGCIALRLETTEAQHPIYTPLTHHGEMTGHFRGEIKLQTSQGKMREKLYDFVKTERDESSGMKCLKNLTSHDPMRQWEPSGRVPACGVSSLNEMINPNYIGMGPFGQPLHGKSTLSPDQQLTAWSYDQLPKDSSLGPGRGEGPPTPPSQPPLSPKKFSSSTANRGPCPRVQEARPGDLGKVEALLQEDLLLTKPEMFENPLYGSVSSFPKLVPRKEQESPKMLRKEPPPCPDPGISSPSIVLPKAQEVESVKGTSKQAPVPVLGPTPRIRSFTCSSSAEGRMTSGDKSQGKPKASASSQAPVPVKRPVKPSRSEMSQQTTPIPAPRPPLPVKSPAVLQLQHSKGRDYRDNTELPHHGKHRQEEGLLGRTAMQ

[2] = system: SHIP1 (full length SHIP1, PPAC, PAC2); assay: In vitro phosphatase assay; assay type: biochemical; conditions: full length SHIP1, 293T derived PPAC, E. coli derived PPAC, and PAC2; 50 μM IP4
Method: In vitro phosphatase assay. The phosphatase assay was performed in 96-well microtiter plates with 10 ng of enzyme/well in a total volume of 25 μL in 20 mM Tris-HCl, pH 7.4, 150 mM NaCl, 0.05% Tween-20, 10 mM MgCl2 as described (Ong et al., 2007). Enzyme was incubated with or compound I-1 (dissolved in ethanol) for 10 minutes at 23° C., before the addition of 50 μM of inositol-1,3,4,5-tetrakisphosphate (IP4) (Echelon Bioscience Inc., Salt Lake City, Utah). The reaction was allowed to proceed for 10 minutes at 37° C. and the amount of inorganic phosphate released was assessed by the addition of Malachite
Green reagent and absorbance measurement at 650 nm. For enzyme kinetic determination, different concentrations of IP4 (0-300 μM) were used and the reactions were stopped at different time points. Initial velocities were calculated, and Kcat and KM were determined using GraphPad 6 software.

[3] = C57 mice, ConA 15 mg/kg i.v., compound 3 or 10 mg/kg/d oral gavage, 12 hours after ConA
[4] = repeat experiment, 10 mg/kg/d, dexamethasone 0.5 mg/kg/d as positive control

## Cc1cc(O)cc2c1C1(C)CCC3C(C)(C)CCCC3(C)C1C2 (centres unmarked) [Compound I-1]
[1]; [3]
  BUN: significantly reduced
  TBIL: significantly reduced
  plasma ALT: significantly reduced
  plasma AST: significantly reduced
[1]; [4]
  ConA-induced ALT level: significantly lowered
  ConA-induced AST level: significantly lowered
SHIP1
  SHIP1 functional activity: increases SHIP1 functional activity
[2]
  activation of phosphatase activity: could be activated
